Experimental findings from patent US11298412B2, “Sphingoid compounds for prophylaxis and/or therapy of coronaviridae infection” (priority 2020, dated 2022) are described below.

Each structure is given as a SMILES string. Entries after “also recorded” stand apart in the source; their conditions may differ.

The test system of data set [1] is lymphocytic choriomeningitis virus (LCMV). The data set is classed as cell-based, LCMV strain WE.
Data set [2] concerns rhinovirus strain RV2 (minor strain). Nature of the data set: Rhinovirus RV2 infection of Hela cells, Trypan Blue cell death. The data set is classed as cell-based. The settings on record: 10 μM and 20 μM, added 10 min before or 60 min or 240 min after infection, 4 days.
Data set [3] has as its system rhinovirus strain RV14 (major strain). Nature of the data set: Rhinovirus RV14 infection of Hela cells, Trypan Blue cell death. The settings on record: 10 μM and 20 μM, added 10 min before or 60 min or 240 min after infection, 4 days. It is filed as cell-based.
Data set [4] relates to rhinovirus strain 2 (RV2). Nature of the data set: Intranasal RV2 infection of wild-type mice, Hela cell death bioassay of nasal bone. The settings on record: 10 μL of 100 μM intranasal 10 min before or 1, 4, 8 hrs after infection, 10^3 PFU, sacrificed after 24 hrs. It is filed as in vivo. The procedure:
Mice were infected with 10^3 PFU rhinovirus strain 2 (RV2) in 10 μL PBS. The virus was applied directly into the nose using a blunt ended, plastic coated 30 g needle, that was inserted into the nose approximately 2 mm. Sphingosine (SPH) was applied into the nose of the wild-type mice at a concentration of 100 μM solution in PBS in a volume of 10 μL. Sphingosine was applied either 10 min prior to rhinovirus infection (b.i.) or 1 hr, 4 hrs and 8 hrs after the infection (a.i.). Controls received the solvent, i.e. octylglucopyranoside (OGP) at the same concentration than used when sphingosine was applied, or were left untreated, but infected. Solutions were applied as in 3.2. Mice were sacrificed after 24 hrs, the nasal bone was removed and incubated for 4 days with Hela cells in a 24 well plate. If the nasal epithelial cells are infected, rhinovirus will be released due to the cytopathic effect of the virus and the in vivo infection can then be determined and quantified by measuring cell death of Hela cells as a bioassay. To this end, dead cells were collected, adherent cells were trypsinized, the fractions were combined, washed twice in H/S (20 mM HEPES, 132 mM NaCl, 5 mM KCl, 1 mM CaCl2), 0.7 mM MgCl2, 0.8 mM MgSO4, pH 7.4), stained with Trypan Blue (0.2% final concentration) and dead cells were counted in aliquots of 500 cells as above. […]

The subject of data set [5] is rhinovirus 2 (RV2). The experiment in a line: RV2 infection of freshly isolated human epithelial cells, Hela cytotoxicity readout. It is filed as cell-based. The settings on record: 10 μM or 20 μM, 24 hrs. The procedure: 10^4 PFU of Rhinovirus 2 or 14 (RV2, RV14) were incubated with freshly isolated human epithelial cells for 24 hrs in the presence of 10 μM or 20 μM sphingosine (SPH) or the corresponding concentration of the solvent octylglucopyranoside (OGP), the cells were pelleted, supernatants completely removed, the cell pellets resuspended in PBS and added to Hela cells. Cells were incubated for 3 days and cytotoxicity as measurement for virus titers was determined. Shown is the mean±SD, n=4, *p<0.001 ANOVA.

Data set [6] deals with pp-VSV-SARS-CoV-2 spike. The data set is classed as cell-based.
For data set [7], the target named is T1, recombinant ACE2 (Homo sapiens, UniProt Q9BYF1).
T1 construct: purchased Abcam ab273687
Nature of the data set: Binding of lipids to immobilized recombinant ACE2. The settings on record: sphingosine at 2 μM.

Data set [8] addresses T2, receptor binding domain of spike S1 / ACE2 (Homo sapiens, UniProt Q9BYF1).
T2 construct: purchased Abcam (Fc-ACE2); Sino Biologicals (RBD-spike) ab273687 (Fc-ACE2); MA FE2702B, #40150-R007 (as printed for RBD-spike)
Nature of the data set: Binding of recombinant RBD of spike S1 to immobilized Fc-ACE2, western blot.

In data set [9] the target is T3, receptor-binding domain of spike protein / ACE2 (Homo sapiens, UniProt Q9BYF1).
T3 construct: purchased Abcam (Fc-ACE2); Sino Biologicals (RBD-spike) ab273687 (Fc-ACE2); MA FE2702B, #40150-R007 (as printed for RBD-spike)
Nature of the data set: Binding of Fc-ACE2 to RBD-spike immobilized on Ni-agarose, western blot. The settings on record: RBD immobilized on Ni2+-agarose; Fc-ACE2 with 1 μM or 2 μM sphingosine.

In data set [10] the test system is pp-VSV-SARS-CoV-2. The experiment in a line: Adhesion of pp-VSV-SARS-CoV-2 on Vero cells, flow cytometry with anti-spike S1. It is filed as cell-based. The settings on record: 20 minutes infection in presence of lipid.
For data set [11], the system named is human nasal epithelial cells. Nature of the data set: Toxicity on human nasal epithelial cells. The settings on record: as per the Vero cell studies.

T1 sequence (Q9BYF1 18-805): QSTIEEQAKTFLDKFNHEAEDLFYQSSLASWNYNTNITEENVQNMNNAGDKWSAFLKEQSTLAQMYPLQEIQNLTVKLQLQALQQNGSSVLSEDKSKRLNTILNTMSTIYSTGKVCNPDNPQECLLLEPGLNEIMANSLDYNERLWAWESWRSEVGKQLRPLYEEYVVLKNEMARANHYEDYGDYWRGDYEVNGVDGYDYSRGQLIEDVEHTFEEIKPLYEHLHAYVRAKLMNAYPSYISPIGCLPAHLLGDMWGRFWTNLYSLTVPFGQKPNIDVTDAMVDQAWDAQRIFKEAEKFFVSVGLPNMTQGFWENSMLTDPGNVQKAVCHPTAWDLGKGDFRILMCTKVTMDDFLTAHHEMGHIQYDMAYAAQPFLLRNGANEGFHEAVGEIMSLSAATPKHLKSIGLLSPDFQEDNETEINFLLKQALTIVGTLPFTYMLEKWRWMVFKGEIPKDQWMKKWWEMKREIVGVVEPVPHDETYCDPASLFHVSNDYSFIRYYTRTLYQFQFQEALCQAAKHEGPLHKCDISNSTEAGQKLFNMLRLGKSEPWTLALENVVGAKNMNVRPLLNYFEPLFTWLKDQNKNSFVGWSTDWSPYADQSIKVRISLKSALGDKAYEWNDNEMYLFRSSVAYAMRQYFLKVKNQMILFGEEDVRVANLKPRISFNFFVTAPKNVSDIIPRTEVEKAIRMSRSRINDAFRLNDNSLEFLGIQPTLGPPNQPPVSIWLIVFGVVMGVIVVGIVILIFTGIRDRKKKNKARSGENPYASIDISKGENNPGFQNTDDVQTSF
T2 sequence (Q9BYF1 18-740): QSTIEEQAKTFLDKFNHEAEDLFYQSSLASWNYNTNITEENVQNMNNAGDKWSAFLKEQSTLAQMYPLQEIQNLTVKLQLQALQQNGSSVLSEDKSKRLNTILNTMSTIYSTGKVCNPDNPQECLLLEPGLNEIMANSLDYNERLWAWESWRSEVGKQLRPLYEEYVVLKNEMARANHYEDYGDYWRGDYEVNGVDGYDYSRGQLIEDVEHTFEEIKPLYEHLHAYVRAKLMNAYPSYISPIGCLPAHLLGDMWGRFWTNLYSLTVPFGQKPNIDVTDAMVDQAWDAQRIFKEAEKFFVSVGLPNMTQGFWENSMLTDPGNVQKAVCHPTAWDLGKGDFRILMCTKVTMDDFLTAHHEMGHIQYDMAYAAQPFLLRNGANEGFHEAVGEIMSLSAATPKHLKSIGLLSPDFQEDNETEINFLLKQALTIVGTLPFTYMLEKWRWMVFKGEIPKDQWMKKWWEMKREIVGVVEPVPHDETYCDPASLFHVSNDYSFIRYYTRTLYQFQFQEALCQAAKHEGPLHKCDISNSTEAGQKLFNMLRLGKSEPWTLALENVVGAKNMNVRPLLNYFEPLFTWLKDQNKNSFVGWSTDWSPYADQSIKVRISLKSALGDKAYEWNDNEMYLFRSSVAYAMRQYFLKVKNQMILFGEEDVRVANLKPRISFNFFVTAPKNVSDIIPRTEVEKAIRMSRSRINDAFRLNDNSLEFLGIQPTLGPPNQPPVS
T3 sequence (Q9BYF1 18-740): as above

In the case of `CCCCCCCCCCCCC/C=C/[C@@H](O)[C@@H](N)CO` [sphingosine, (2S,3R,4E)-2-amino-4-octadecene-1,3-diol], the “propagation of LCMV (infectious LCMV particles in the supernatant)” value in data set [1] is recorded as “reduced propagation of LCMV; also recorded: inhibits the propagation of LCMV”. Moreover, the “infection with RV2 (percentage of dead cells)” value in [2] was “prevented the infection; also recorded: prevention of RSV2 and RSV14 infection”. Besides, the “infection with RV14 (percentage of dead cells)” value in [3] is “prevented the infection; also recorded: prevention of RSV2 and RSV14 infection”. For the same molecule, the “infection with RV2 in vivo (percentage of dead Hela cells)” value in data set [4] was “prevented; also recorded: prevents infection by RSV2”. Besides, the “infection of human epithelial cells by RV2” value in data set [5] is recorded as “abrogates infection of human epithelial cells; also recorded: prevents infection of freshly isolated human nasal epithelial cells”. Besides, in [6], the “effect on infection of Vero epithelial cells with pp-VSV-SARS-CoV-2” value is recorded as “marked effect”, the “infection of Vero cells by SARS-CoV-2” value was “prevents infection of Vero cells by SARS-CoV-2” and the “reduction of the infection of Vero epithelial cells with pp-VSV-SARS-CoV-2” value is on record as “more than 90%”. In addition, the “binding of lipid to immobilized recombinant ACE2 (beads)” value in data set [7] is “revealed a binding of sphingosine to ACE2; also recorded: selectively couples to beads with bound recombinant ACE2; also recorded: binds the ACE2 receptor”. For the same molecule, in [8] (immobilized Fc-ACE2 pre-incubated with 1 μM or 2 μM sphingosine), the “binding of recombinant receptor binding domain of spike S1 to ACE2” value is listed as “prevented binding of recombinant receptor binding domain of spike S1 to ACE2”. Further, the “binding of the recombinant RBD of spike S1 to ACE2” value in data set [8] (immobilized Fc-ACE2 pre-incubated with 2 μM sphingosine) is recorded as “reduced binding of the recombinant RBD of spike S1 to ACE2”. Also, in data set [9], the “interaction of the receptor-binding domain of spike protein with ACE2” value is recorded as “abolished the interaction of the receptor-binding domain of spike protein with ACE2”. The “binding of pp-VSV-SARS-CoV-2 to the cell surface” value in data set [10] was “prevented binding of pp-VSV-SARS-CoV-2 to the cell surface”. Also, in data set [11], the “toxic effects on nasal epithelial cells” value is listed as “no toxic effects on nasal epithelial cells; also recorded: without negative effects on the cells”.
